Here are results for one compound from patent publication US20250360113A1, “ADMINISTRATION OF DHB TO INCREASE BENEFIT OF LOSING WEIGHT OF INTERMITTENT FASTING” (NANJING NUTRABUILDING BIO-TECH CO., LTD., priority 2023, published 2025).

What all share (format): in vivo, C57BL/6 male mice
A short description of assay [1]: Body weight and body composition of HFD obese mice given DHB with or without EODF. The protocol: 50 C57BL/6 male mice aged about 8 weeks, are randomly assigned to five study groups (GA, GB1, GB2, GB3, GB4) of ten mice each (one cage, n=5 per condition). Mice were maintained in a pathogen free condition under a strict 12 h light/dark cycle (0600/1800 h) with 12-15 cycles/hour of air change. Mice were provided with access to respective feed and water ad libitum as per experimental conditions. Mice were housed under controlled laboratory conditions of temperature and humidity at 23±2° C. and 50±10% RH, respectively.
Each study group consisted of ten animals, and treatment details of the individual study groups are given below: • Group A (GA, NC): Normal mice, maintained on normal diet (standard chow, 12% calories from fat; 23% calories from protein and 65% calories from carbohydrates) for 8 weeks, receiving neither EODF nor DHB treatment. • Group B1 (GB1): Obese mice, maintained on high fat diet (HFD, 60% calories from fat, 20% calories from protein, 20% calories from carbohydrate) for 8 weeks, receiving neither EODF nor DHB treatment. • Group B2 (GB2): Obese mice, maintained on HFD for 8 weeks, receiving only EODF and no DHB treatment. • Group B3 (GB3): Obese mice, maintained on HFD for 8 weeks, receiving only DHB treatment and no EODF. • Group B4 (GB4): Obese mice, maintained on HFD for 8 weeks, receiving DHB treatment and EODF combination.
The total experimental time is 19 weeks, including two periods: an elevent-week induction period and a subsequent eight-week treatment period.
HFD fed male mice in groups at 8 weeks of age were randomly assigned into either ad libitum, or EODF groups on a per cage basis. All cage bedding was changed to paper bedding for the duration of the model. Mice in the EODF group had total deprivation of food and ad libitum access to water from 1200 h-1200 h on alternate days with ad libitum food and water access. EODF cages were changed upon induction of fasting. Ad libitum control mice cages were changed every other day with fresh food provided.
DHB was administered daily via intragastric injection (i.g.) according to a level of 70 mg/kg body weight. Mice not receiving DHB were given orally with ultrapure water.
Each mouse's body weight is measured weekly during the study at 1200 h. Each animal's body composition was measured and recorded before the treatment and weekly during the study at 1200 h by Nuclear Magnetic Resonance Body Composition Analyzer in accordance with manufacturer's instruction. After sacrifice, subcutaneous fat and para-renal fat were weighed.

A short description of assay [2]: Insulin tolerance test (ITT). Particulars: HFD obese mice. As for the experimental part: 50 C57BL/6 male mice aged about 8 weeks, are randomly assigned to five study groups (GA, GB1, GB2, GB3, GB4) of ten mice each (one cage, n=5 per condition). Mice were maintained in a pathogen free condition under a strict 12 h light/dark cycle (0600/1800 h) with 12-15 cycles/hour of air change. Mice were provided with access to respective feed and water ad libitum as per experimental conditions. Mice were housed under controlled laboratory conditions of temperature and humidity at 23±2° C. and 50±10% RH, respectively. Each study group consisted of ten animals, and treatment details of the individual study groups are given below: • Group A (GA, NC): Normal mice, maintained on normal diet (standard chow, 12% calories from fat; 23% calories from protein and 65% calories from carbohydrates) for 8 weeks, receiving neither EODF nor DHB treatment. • Group B1 (GB1): Obese mice, maintained on high fat diet (HFD, 60% calories from fat, 20% calories from protein, 20% calories from carbohydrate) for 8 weeks, receiving neither EODF nor DHB treatment. • Group B2 (GB2): Obese mice, maintained on HFD for 8 weeks, receiving only EODF and no DHB treatment. • Group B3 (GB3): Obese mice, maintained on HFD for 8 weeks, receiving only DHB treatment and no EODF. • Group B4 (GB4): Obese mice, maintained on HFD for 8 weeks, receiving DHB treatment and EODF combination. DHB was administered daily via intragastric injection (i.g.) according to a level of 70 mg/kg body weight. Mice not receiving DHB were given orally with ultrapure water. Insulin tolerance test (ITT): To measure […], ITT were measured in the 6-h fasting mice (NC and HFD groups) by using a glucose analyzer. The glucose concentrations were measured by venous bleeding at 0, 15, 30, 60 and 120 min after an i.p. injection of human insulin at 0.75 U/kg. Towards the end of the final week of the study, ITT was performed for all mice (NC and HFD groups).

Assay [3] is described as follows: Normal-diet mice given DHB with or without EODF, tested by the same method. The settings on record: normal mice on normal diet. As for the experimental part:
40 C57BL/6 male mice aged about 8 weeks, are randomly assigned to four study groups (GA1, GA2, GA3, GA4) of ten mice each (one cage, […]). Mice were maintained in a pathogen free condition under a strict 12 h light/dark cycle (0600/1800 h) with 12-15 cycles/hour of air change. Mice were provided with access to respective feed and water ad libitum as per experimental conditions. Mice were housed under controlled laboratory conditions of temperature and humidity at 23±2° C. and 50±10% RH, respectively. Each study group consisted of ten animals, and treatment details of the individual study groups are given below: • Group A1 (GA1, NC): Normal mice, maintained on normal diet (standard chow, 12% calories from fat; 23% calories from protein and 65% calories from carbohydrates) for 8 weeks, receiving neither EODF nor DHB treatment. • Group A2 (GA2): Normal mice, maintained on normal diet for 8 weeks, receiving only EODF and no DHB treatment. • Group A3 (GA3): Normal mice, maintained on normal diet for 8 weeks, receiving only DHB treatment and no EODF. • Group A4(GA4): Normal mice, maintained on normal diet for 8 weeks, receiving DHB treatment and EODF combination. Test according to the above method. […] This effect persists for as long as the test protocol is continued.

The mark [4] stands for this setting: DHB 70 mg/kg i.g. daily + EODF combination vs EODF only.
[5] abbreviates: DHB + EODF combination vs EODF only.

Entries after “also recorded” stand apart in the source; their conditions may differ.

Turning to `COc1ccc2c(c1OC)CN1CCc3cc4c(cc3C1=C2)OCO4` [DHB, Dihydroberberine], in assay [1] (setting [4]), the body fat entry is given as “reducing”, the body weight result is recorded as “reducing; also recorded: greater effects on weight loss”, the para-renal fat entry was “reducing” and the subcutaneous fat result was “reducing”. The body composition entry in assay [1] (DHB 70 mg/kg i.g. daily, 8 weeks, with or without EODF, vs same HFD with and without EODF, no DHB, FIGS. 1-4) is “greater reduction in body composition”. Further, in assay [2] (DHB 70 mg/kg i.g. daily vs no DHB with and without EODF, FIGS. 11-14), the insulin levels entry is given as “greater reduction”. For the same compound, in assay [2] (setting [5]), the “improving the insulin tolerance” value was “greater effects” and the “reducing the insulin levels” value is “greater effects”. In assay [2] (human insulin 0.75 U/kg i.p., DHB vs no DHB with and without EODF), the insulin tolerance entry is on record as “better”. For the same compound, the “effects (same tests as in obese mice)” value in assay [3] (setting [5]) is on record as “greater effects”. For the same compound, in assay [3] (DHB vs no DHB with and without EODF), the “effectiveness (same tests as in obese mice)” value was “greater effectiveness”.
